# Assay results from patent publication US6410568B1, “Porphyrins and their use as photosensitizer” (Astrid Schastak, priority 1998, dated 2002).
# Columns and labels:
# Test in all cases: Photodynamic effect in vitro, MTT test after irradiation
# choroid melanoma cells = format: cell-based; conditions: THPTPS 0.4, 0.8, 1.6 mg/ml for 12 hours, Ti:Sa laser 771 nm, 15 J/cm^2
# Procedure: (§1) To examine the photodynamic effect in vitro, the above-mentioned cell lines were cultivated in a cell count of 2×10^5 C/ml in DMEM+10% FKS and incubated with the photosensitizer THPTPS in a concentration of 0.2, 0.4, 0.8 mg/ml (Wittier) or 0.4, 0.8, 1.6 mg/ml for 12 hours. Subsequently, they were irradiated with the light of a Ti:Sa leaser with a wavelength of 771 nm and a dose of 15 J/cm^2. […] Approximately 88% of the choroid melanoma cells were able to be killed by the irradiation.
# [1] = tested on: bile duct adenocarcinoma cell line (Charies), undifferentiated to a high degree; format: cell-based; conditions: THPTPS 0.4, 0.8, 1.6 mg/ml for 12 hours, Ti:Sa laser 771 nm, 15 J/cm^2
# Procedure: as §1
# [2] = tested on: highly-differentiated gallbladder carcinoma cell line (Wittier); format: cell-based, human; conditions: THPTPS 0.2, 0.4, 0.8 mg/ml for 12 hours, Ti:Sa laser 771 nm, 15 J/cm^2
# Procedure: as §1
substance,measurement,setting,value
"5,10,15,20-tetrakis-(1-alkyl-pyridyl)-21H, 23H-7,8,17,18-tetrahydroporphyrin-tetra-p-toluene sulphonate [THPTPS]",cells killed by the irradiation (MTT test),choroid melanoma cells,approx. 88%
same,cells dead (MTT test),[1],approx. 84%
same,cells dead (MTT test),[2],approx. 88%
